# Where no end group is shown, it is not given here.
# Columns and labels:
# [1] = biological target: SARS-CoV-2 spike trimer protein (Severe acute respiratory syndrome coronavirus 2, UniProt P0DTC2); experiment: biochemical; format: binding
# [2] = biological target: SARS-CoV-2 spike monomer protein (Severe acute respiratory syndrome coronavirus 2, UniProt P0DTC2); experiment: biochemical; format: binding
sequence,measurement,setting,value
NFWISPKLAFALGGGS [Spep-1],Kd,[1],1.7 nM
same,Kd,[2],2.14 nM

# Source: publication PMC9254439 (Virologica Sinica, 2022)
